According to ChEMBL document CHEMBL6182880, “TCM theory-inspired discovery of DNJ-flavonoid conjugates as broad-spectrum anti-SARS-CoV-2 agents by primarily targeting ER-associated glycoprotein folding process” (Eur J Med Chem, 2025):

Assays:
Assay type in all cases: functional, organism-based; call rule not given here
SARS-CoV-2 [1] = assay: Antiviral activity against SARS CoV-2 pseudovirus transfected in HEK293 cells harboring pLenti-GFP-Luc assessed as inhibition of viral entry into HeLa-ACE2 cells treated 1 to 6 hrs post-infection and measured after 48 hrs by luciferase assay; conditions: Severe acute respiratory syndrome coronavirus 2
SARS-CoV-2 [2] = assay: Antiviral activity against SARS CoV-2 pseudovirus transfected in HEK293 cells harboring pLenti-GFP-Luc assessed as inhibition of viral packing process by luciferase assay; conditions: Severe acute respiratory syndrome coronavirus 2; HeLa-ACE2; time 48.0 hrs
SARS-CoV-2 [3] = assay: Antiviral activity against SARS CoV-2 pseudovirus transfected in HEK293 cells harboring pLenti-GFP-Luc assessed as inhibition of viral entry into HeLa-ACE2 cells incubated with cells for 1 to 2 hrs prior to viral infection and measured after 48 hrs by luciferase assay; conditions: Severe acute respiratory syndrome coronavirus 2, HeLa-ACE2
SARS-CoV-2 [4] = assay: Antiviral activity against SARS CoV-2 pseudovirus transfected in HEK293 cells harboring pLenti-GFP-Luc assessed as inhibition of viral entry into HeLa-ACE2 cells treated for 12 hrs prior to media replacement and measured after 48 hrs by luciferase assay; conditions: Severe acute respiratory syndrome coronavirus 2, HeLa-ACE2
SARS-CoV-2 [5] = assay: Antiviral activity against SARS CoV-2 pseudovirus transfected in HEK293 cells harboring pLenti-GFP-Luc assessed as inhibition of viral packing process treated from 12 to 48 hrs post-transfection by luciferase assay; conditions: Severe acute respiratory syndrome coronavirus 2, HeLa-ACE2

Compound: O=c1cc(-c2ccc(O)c(O)c2)oc2cc(O)cc(OCCCCCCCCCCN3C[C@H](O)[C@@H](O)[C@H](O)[C@H]3CO)c12
- inhibition (SARS-CoV-2 [1]): Not active; Delay Of Time Of Addition Exerted A Time-Dependent Decrease In Viral Entry Inhibition
- inhibition (SARS-CoV-2 [2]): Time-dependent-effect
- EC50 (SARS-CoV-2 [3]): 7.52 µM
- EC50 (SARS-CoV-2 [4]): 5.13 µM
- EC50 (SARS-CoV-2 [5]): 7.52 µM
